This is an account of results in patent US7732460B2 (priority 2005, dated 2010).

This assay deals with panel of Gram-positive organisms (Staphylococcus aureus, Streptococcus pneumoniae, Streptococcus pyogenes, Enterococcus faecalis, Enterococcus faecium) and …. Type of assay: cell-based, Gram-positive and Gram-negative bacteria. As to conditions: against all of the strains representing the organisms listed; serial two-fold dilutions 0.016 to 16 mcg/mL.

In turn, `COc1cnc2ccc(=O)n3c2c1[C@](O)(CN1CCC(NCc2cc4c(nn2)OCCO4)CC1)C3` [Example 66] came in with an MIC values of more than 16 µg/mL.
